Tests used:
mice = experiment: Repeated administration toxicology: gross signs of toxicity in behavior; format: in vivo, mouse; settings: 1 mg/kg i.p., daily administration for three days, n=6
From the text: […] Mice are examined over the course of the study for any gross signs of toxicity as evidenced in their behavior. At the end of the one-week period, blood which is collected by cardiac puncture immediately prior to sacrifice. Animals are sacrificed and ten different tissue samples are removed post mortem from each animal. Isolated tissues are fixed, stained, blocked and sectioned. The pathology of the tissue samples will be analyzed and the toxicology data are compiled.

[1] = format: physicochemical
From the text: Coelenterazine is not terribly soluble in non-irritant vehicles. Coelenterazine is soluble to at least to a concentration of 200 micrograms/mL in a solution of 2% (w/v) PEG 400 containing about 0.8% (w/v) NaCl. Although this solution is slightly hypertonic, it is not an irritant for vehicle purposes.

## coelenterazine
mice
  gross behavior changes: no gross behavior changes
[1]
  solubility (soluble to at least a concentration of): ≥ 200 micrograms/mL
